{"source": "patent EP0569598A1", "about": "“BENZOXAZINONE DERIVATIVE” (JAPAN TOBACCO INC., priority 1991, dated 1993)", "type_in_all_cases": "biochemical", "key": {"[1]": {"target": "T1, human leukocyte elastase (HLE) (Homo sapiens, UniProt P08246)", "T1 construct": "the mixed solution was subjected to density gradient centrifugation, thereby obtaining neutrophiles; from tissue; host or cells: neutrophils from human vein blood (buffy coat)", "T1 sequence (P08246 30-247 limits assumed)": "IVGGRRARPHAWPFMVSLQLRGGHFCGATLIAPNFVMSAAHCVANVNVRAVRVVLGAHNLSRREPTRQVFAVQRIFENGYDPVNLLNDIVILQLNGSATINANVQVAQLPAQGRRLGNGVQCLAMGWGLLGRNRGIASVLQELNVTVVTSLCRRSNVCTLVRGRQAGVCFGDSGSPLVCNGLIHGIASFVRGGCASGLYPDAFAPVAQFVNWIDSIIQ", "experiment": "HLE inhibitory activity (synthetic substrate, pNA release, absorbance 405 nm)", "conditions": "pH 8.6; HLE 5.63 nM, substrate 0.2625 mM; 37°C; read-out: IC₅₀ value HLE", "description": "(§1) Activities of the Benzoxazine derivatives of the present invention against human leukocyte elastase (HLE), human sputum elastase (HSE), human cathepsin G (HCG), bovine pancreatic α-chmotrypsin (CYT) and bovine pancreatic trypsin (TRY) were measured by the following method.\nA buffy coat was obtained by subjecting human vein blood to centrifugation. To the buffy coat was added distilled water to make a hypotonic solution, thereby bursting erythrocytes. To the residual blood cell component was added a 33.4% of Conrey 400 solution/9% Ficoll solution (the ratio of the former solution to the latter solution is 10:24), and the mixed solution was subjected to density gradient centrifugation, thereby obtaining neutrophiles. The neutrophile fraction was washed with Hanks' buffer for three times and then cells were recovered and cryopreserved at -80°C until use. The cryopreserved-cells were thawed with warm water at 37°C and suspended in a 9-fold volume of lysis buffer containing 0.1M Tris-HCl (pH7.5), 1M MgCl₂ and 0.1% Brij 35. The suspended cells are destroyed by means of polotoron with ice-cooling. The cell suspension was subjected to centrifugation at 100,000 x g for 1 hour. After removing precipitates, 2-fold volume of a Tris-HCl buffer containing 5 mM Tris-HCl(pH 7.5), 1M NaCl and 1.1% Brij 35 was added to the supernatant, thereby obtaining a crude solution of an enzyme extract. The crude solution was subjected to aprotinine affinity column and extracted with an elution buffer containing […] of glycine-HCl (pH 3.3), 1M NaCl and 0.1% Brij 35, thereby obtaining an active fraction. The obtained active fraction was further subjected to MONO S-ion-exchange chromatography and eluted with 2M NaCl linear gradient. The obtained fraction was dialyzed against 25 mM Tris-HCl (pH8.6) and lyophilized, thereby obtained an enzyme sample.\n(§2) A test compound was dissolved in DMSO (for fluorometry) and prepared various concentration of the solution. To each concentration was added 2-fold volume of 0.2M Tris-HCl (pH8.6), thereby obtaining a test solution. Synthetic substrate (Funakoshi, L-1335) was dissolved in DMSO and 2-volume of 0.2M Tris-HCl (pH8.6) was added thereto, thereby obtaining a substrate solution. The reaction was performed using a microplate having 96 wells (Nunk). Six-time reactions were repeated for each concentration. One handred and forty µl of an enzyme solution containing 0.2M Tris-HCl (pH8.6), 30 µl of a test solution and 30 µl of a substrate solution per well of the microplate were respectively pre-incubated at 37°C for 10 minutes. After completion of the incubation, the enzyme solution was mixed with the test sample and incubated for 10 minutes and then the substrate solution was added to perform an enzyme reaction. The absorbance of released P-nitroanilide (PNA) was measured at the wave length of 405 nm by means of a microplate reader (MTP-100; CORONA), thereby determining the substrate decomposition. The rate of the substrate decomposition was shown as an average value of 6 repeated reactions. The inhibitory concentration of a test compound relative to the amount of the substrate decomposition in the reaction mixture without a test compound was regarded as an IC₅₀ value. The final concentration of HLE and a synthesized substrate in the reaction mixture were 5.63 nM and 0.2625 mM, respectively."}, "[2]": {"target": "T2, human sputum elastase (HSE) (Homo sapiens, UniProt P08246)", "T2 construct": "human sputum elastase (HSE); purchased Sigma Inc", "T2 sequence (P08246 30-267)": "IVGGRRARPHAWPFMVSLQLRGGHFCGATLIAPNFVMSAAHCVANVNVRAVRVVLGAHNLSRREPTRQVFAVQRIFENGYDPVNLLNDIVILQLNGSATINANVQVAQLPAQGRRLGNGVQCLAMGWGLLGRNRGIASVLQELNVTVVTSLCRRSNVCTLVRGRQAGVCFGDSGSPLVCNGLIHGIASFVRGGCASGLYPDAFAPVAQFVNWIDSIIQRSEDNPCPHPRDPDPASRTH", "experiment": "HSE inhibitory activity (synthetic substrate, pNA release)", "conditions": "pH 7.0; HSE 10 nM, substrate 0.25 mM; read-out: IC₅₀ value HSE", "description": "as §1\nas §2, with “The rate of the substrate decomposition was shown as an average value of 6 repeated reactions. The inhibitory concentration of a test compound relative to the amount of the substrate decomposition in the reaction mixture without a test compound was regarded as an IC₅₀ value. The final concentration of HLE and a synthesized substrate in the reaction mixture were 5.63 nM and 0.2625 mM, respectively.” left out"}, "[3]": {"target": "T3, bovine pancreatic trypsin (TRY) (Bos taurus, UniProt P00760)", "T3 construct": "bovine pancreatic trypsin (TRY); purchased Sigma Inc", "T3 sequence (P00760 24-246)": "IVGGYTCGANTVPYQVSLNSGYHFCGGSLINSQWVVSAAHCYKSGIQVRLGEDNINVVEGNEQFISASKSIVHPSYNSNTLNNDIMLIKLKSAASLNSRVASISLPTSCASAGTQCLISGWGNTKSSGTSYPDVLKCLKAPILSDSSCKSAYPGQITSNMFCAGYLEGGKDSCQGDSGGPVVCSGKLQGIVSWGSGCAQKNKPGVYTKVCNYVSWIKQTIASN", "experiment": "TRY inhibitory activity (synthetic substrate, pNA release)", "conditions": "pH 7.5; TRY 25 nM, substrate Z-Arg-pNA 1.0 mM; read-out: IC₅₀ value TRY", "description": "as §1\nas §2, with “The rate of the substrate decomposition was shown as an average value of 6 repeated reactions. The inhibitory concentration of a test compound relative to the amount of the substrate decomposition in the reaction mixture without a test compound was regarded as an IC₅₀ value. The final concentration of HLE and a synthesized substrate in the reaction mixture were 5.63 nM and 0.2625 mM, respectively.” left out"}}, "data": [{"smiles": "Cc1cccc2nc([C@@H](NC(=O)OCC(c3ccccc3)c3ccccc3)C(C)C)oc(=O)c12", "note": "[Compound 1, 2-[1(S)-[(2,2-diphenylethoxy-carbonyl)amino]-2-methylpropyl]-5-methyl-4H-3,1-benzoxazin-4-one]", "values": [{"measurement": "IC50", "setting": "[1]", "result": 70, "unit": "nM"}, {"measurement": "IC50", "setting": "[2]", "result": 280, "unit": "nM"}, {"measurement": "IC50", "setting": "[3]", "result": "> 12500", "unit": "nM"}]}]}
